Reference: ChEMBL document CHEMBL1201862, “PubChem BioAssay data set” (2004)
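Compound exposure: 48 hours, 5 concentrations, 96-well plates. GI50: concentration for 50% inhibition of growth.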 The source made the active and inactive calls. Rule as the data show it: active = GI50 up to about 1.1 µM and inactive = higher.

Columns and labels:
Experiment in all cases: inhibition of tumour cell growth, NCI panel, 48 h
M14 = test system: M14
CAKI-1 = test system: CAKI-1
SK-MEL-5 = test system: SK-MEL-5
ACHN = test system: ACHN
OVCAR-4 = test system: OVCAR-4
SK-MEL-2 = test system: SK-MEL-2
HOP-92 = test system: HOP-92
COLO 205 = test system: COLO 205
NCI/ADR-RES = test system: NCI/ADR-RES
PC-3 = test system: PC-3
T47D = test system: T47D
NCI-H226 = test system: NCI-H226
UO-31 = test system: UO-31
OVCAR-8 = test system: OVCAR-8
SR = test system: SR
OVCAR-5 = test system: OVCAR-5
EKVX = test system: EKVX
Malme-3M = test system: Malme-3M
HL-60 = test system: HL-60

Measured: GI50

COC(C/C(=C/CO[Si](C(C)C)(C(C)C)C(C)C)C(=O)N(COCC[Si](C)(C)C)c1ccccc1I)OC
inactive: M14 26.6 µM | CAKI-1 > 100 µM | SK-MEL-5 20.1 µM | ACHN 20.6 µM | OVCAR-4 42.2 µM | SK-MEL-2 14.9 µM | HOP-92 42 µM | COLO 205 57.7 µM | NCI/ADR-RES > 100 µM | PC-3 28.4 µM | T47D 32.6 µM | NCI-H226 36 µM | UO-31 55.3 µM | OVCAR-8 89.5 µM | SR > 100 µM | OVCAR-5 32.4 µM

COc1ccc([C@H]2[C@H]3COC(=O)[C@H]3C(C#N)=C3Sc4ccccc4N32)cc1
inactive: M14 56.5 µM | CAKI-1 21.7 µM | SK-MEL-5 21.1 µM | ACHN 37.6 µM | OVCAR-4 33.7 µM | EKVX 37.4 µM | SK-MEL-2 19.1 µM | HOP-92 85.1 µM | COLO 205 15.3 µM | NCI/ADR-RES 15.5 µM | PC-3 17.3 µM | T47D 8.89 µM | Malme-3M 43 µM | NCI-H226 33.1 µM | UO-31 23.4 µM | OVCAR-8 51.3 µM | OVCAR-5 80.5 µM

Cc1cccc2c(=O)c3cccc([C@@H](C)C(=O)O)c3oc12
inactive: M14 > 100 µM | CAKI-1 > 100 µM | HL-60 > 100 µM | SK-MEL-5 > 100 µM | ACHN > 100 µM | OVCAR-4 > 100 µM | EKVX > 100 µM | SK-MEL-2 80.7 µM | HOP-92 > 100 µM | COLO 205 > 100 µM | NCI/ADR-RES > 100 µM | PC-3 > 100 µM | T47D > 100 µM | NCI-H226 > 100 µM | UO-31 > 100 µM | OVCAR-8 > 100 µM | SR > 100 µM

CC(C)(C)CN1[C@@H]2CCCC[C@H]2N(CC(C)(C)C)P1(=O)Cc1ccccc1
inactive: M14 13.5 µM | CAKI-1 12.7 µM | HL-60 11.3 µM | SK-MEL-5 12.2 µM | ACHN 15.2 µM | OVCAR-4 10.4 µM | EKVX 14.3 µM | SK-MEL-2 16.1 µM | COLO 205 10.4 µM | NCI/ADR-RES 12.1 µM | PC-3 6.5 µM | T47D 10.1 µM | Malme-3M 13.5 µM | NCI-H226 12.9 µM | UO-31 13.3 µM | OVCAR-8 14.4 µM | SR 11.8 µM | OVCAR-5 12.7 µM

COC1C=COC2(C)Oc3c(C)c(O)c4c(O)c(c(C5SCCS5)c(O)c4c3C2=O)NC(=O)C(C)=C/C=C\C(C)C2OC(C)(C)OC(C2C)C(C)C(OC(C)=O)C1C (stereo not given)
inactive: M14 9.31 µM | CAKI-1 6.12 µM | HL-60 5.53 µM | SK-MEL-5 3.77 µM | ACHN 3.15 µM | OVCAR-4 6.07 µM | SK-MEL-2 5.79 µM | HOP-92 5.55 µM | COLO 205 3.38 µM | NCI/ADR-RES 11.6 µM | PC-3 5.31 µM | T47D 70.6 µM | Malme-3M 11.5 µM | NCI-H226 6.71 µM | UO-31 7.41 µM | OVCAR-8 5.15 µM | OVCAR-5 24.3 µM

O=C(O)C1C(C(=O)O)C2C(=O)C=CC1N2Cc1ccccc1 (stereo not given)
inactive: M14 2.25 µM | CAKI-1 3.94 µM | HL-60 1.77 µM | SK-MEL-5 5.32 µM | ACHN 4.18 µM | OVCAR-4 4.32 µM | EKVX 3.06 µM | SK-MEL-2 8.51 µM | HOP-92 9.55 µM | COLO 205 6.98 µM | NCI/ADR-RES 2.3 µM | PC-3 5.58 µM | T47D 3.46 µM | Malme-3M 3.68 µM | NCI-H226 16 µM | UO-31 1.71 µM | OVCAR-8 4.16 µM | OVCAR-5 6.22 µM

CC(=O)N1CCOC12N=NC(C)(C)O2 (stereo not given)
inactive: M14 > 100 µM | CAKI-1 > 100 µM | SK-MEL-5 > 100 µM | ACHN > 100 µM | OVCAR-4 > 100 µM | EKVX > 100 µM | SK-MEL-2 > 100 µM | HOP-92 > 100 µM | COLO 205 > 100 µM | NCI/ADR-RES > 100 µM | PC-3 > 100 µM | T47D > 100 µM | Malme-3M > 100 µM | UO-31 > 100 µM | OVCAR-8 > 100 µM | SR > 100 µM | OVCAR-5 > 100 µM

O=C(Cc1ccccc1)NCCCN(CCCCN(CCCNC(=O)Cc1ccccc1)C(=O)OCc1ccccc1)C(=O)OCc1ccccc1
inactive: M14 > 100 µM | CAKI-1 4.74 µM | ACHN > 21.6 µM | EKVX > 49.8 µM | SK-MEL-2 > 100 µM | HOP-92 > 25.2 µM | COLO 205 6.07 µM | NCI/ADR-RES > 100 µM | PC-3 7.45 µM | T47D > 36.4 µM | NCI-H226 > 100 µM | UO-31 1.66 µM | OVCAR-8 > 100 µM | SR 30.4 µM | OVCAR-5 > 100 µM
